Experimental data taken from ChEMBL document CHEMBL1201862, “PubChem BioAssay data set” (2004).
Calls of active or inactive are those of the source.

Experiments:
[1] = molecular target: T1, Apoptotic protease-activating factor 1 (Homo sapiens, UniProt O14727); test: activation of Apaf-1 mediated apoptosis – fluorescent, uHTS hits, dose response (AID 588554); format: functional
T1 sequence (O14727 whole entry): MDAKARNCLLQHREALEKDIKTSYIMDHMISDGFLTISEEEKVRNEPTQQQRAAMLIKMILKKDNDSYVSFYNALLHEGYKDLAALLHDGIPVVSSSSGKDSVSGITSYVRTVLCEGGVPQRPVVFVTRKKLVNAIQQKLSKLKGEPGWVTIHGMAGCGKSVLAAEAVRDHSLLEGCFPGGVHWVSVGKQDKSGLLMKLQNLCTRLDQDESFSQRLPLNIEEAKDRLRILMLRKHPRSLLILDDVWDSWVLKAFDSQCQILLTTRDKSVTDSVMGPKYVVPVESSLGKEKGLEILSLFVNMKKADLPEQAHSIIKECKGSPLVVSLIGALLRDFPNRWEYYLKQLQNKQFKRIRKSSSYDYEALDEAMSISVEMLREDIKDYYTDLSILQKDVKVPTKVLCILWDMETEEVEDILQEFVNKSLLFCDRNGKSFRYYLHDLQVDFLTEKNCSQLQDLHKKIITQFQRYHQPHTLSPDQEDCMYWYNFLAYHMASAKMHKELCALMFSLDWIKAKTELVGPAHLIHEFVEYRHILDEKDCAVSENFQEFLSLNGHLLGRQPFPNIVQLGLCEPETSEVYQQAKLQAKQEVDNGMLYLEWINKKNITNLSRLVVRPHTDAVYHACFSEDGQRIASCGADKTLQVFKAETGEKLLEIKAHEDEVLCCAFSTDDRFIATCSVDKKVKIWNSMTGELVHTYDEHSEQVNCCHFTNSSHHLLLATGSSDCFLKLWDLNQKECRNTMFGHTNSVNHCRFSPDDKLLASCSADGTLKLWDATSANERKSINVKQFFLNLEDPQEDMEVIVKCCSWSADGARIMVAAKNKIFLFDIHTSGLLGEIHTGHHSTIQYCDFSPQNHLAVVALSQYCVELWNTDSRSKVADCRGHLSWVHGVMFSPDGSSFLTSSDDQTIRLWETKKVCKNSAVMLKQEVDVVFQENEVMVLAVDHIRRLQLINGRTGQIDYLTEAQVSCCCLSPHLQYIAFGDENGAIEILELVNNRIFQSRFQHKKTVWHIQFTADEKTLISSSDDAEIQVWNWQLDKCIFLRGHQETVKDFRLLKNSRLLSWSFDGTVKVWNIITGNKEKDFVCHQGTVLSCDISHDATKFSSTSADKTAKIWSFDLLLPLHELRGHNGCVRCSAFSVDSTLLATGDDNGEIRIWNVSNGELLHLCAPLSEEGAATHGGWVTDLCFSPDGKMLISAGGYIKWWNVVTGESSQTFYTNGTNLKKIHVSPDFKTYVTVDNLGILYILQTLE

[2] = molecular target: FAD-linked sulfhydryl oxidase ALR (Homo sapiens, UniProt P55789); test: ALR-catalysed DTT oxidation blockers – biochemical, H2O2 detection, luminescence, cherry-pick, dose response (AID 493248)
A-375 [3] = test: proliferation inhibition in MITF-low A375 cells – cell-based, cherry-pick samples, set 2, counter-screen for MITF modulator project, dose response (AID 540335); format: functional; conditions: Homo sapiens
[4] = molecular target: T2, Microphthalmia-associated transcription factor (Homo sapiens, UniProt O75030); test: reducers of TRPM1 reporter luminescence, concentration series – cell-based, SK-MEL-5, cherry-picked, set 3, MITF inhibitor project, dose response (AID 493073); format: functional;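 note: SK-MEL-5 melanoma cells with luciferase driven by the MITF target TRPM1 promoter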
T2 sequence (O75030 whole entry): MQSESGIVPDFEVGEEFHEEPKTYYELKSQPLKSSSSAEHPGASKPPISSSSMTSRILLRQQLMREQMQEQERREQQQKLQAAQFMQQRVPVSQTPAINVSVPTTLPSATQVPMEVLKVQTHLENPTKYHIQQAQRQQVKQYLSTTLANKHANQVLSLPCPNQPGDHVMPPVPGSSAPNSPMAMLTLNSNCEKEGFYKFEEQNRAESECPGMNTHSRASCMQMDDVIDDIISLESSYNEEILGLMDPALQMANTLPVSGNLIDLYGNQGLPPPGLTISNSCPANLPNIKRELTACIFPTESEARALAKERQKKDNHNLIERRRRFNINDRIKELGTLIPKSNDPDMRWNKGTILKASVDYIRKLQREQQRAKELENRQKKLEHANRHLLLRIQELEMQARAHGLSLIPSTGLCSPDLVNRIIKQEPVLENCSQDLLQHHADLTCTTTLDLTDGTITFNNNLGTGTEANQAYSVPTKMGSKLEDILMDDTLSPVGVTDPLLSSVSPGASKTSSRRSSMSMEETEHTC

cells = format: functional
[5] = THP-1 cell cytotoxicity, dose response, cytotoxicity control for non-replicating M. tuberculosis project (AID 489025); format: functional
Beta-galactosidase = Beta-galactosidase (Escherichia coli, UniProt Q8VNN2); test: detection-enzyme interference by beta-gal modulators – biochemical, E. coli enzyme, set 3, artefact control for CCR6 antagonist project, dose response (AID 504712); format: functional
[6] = molecular target: Eukaryotic translation initiation factor 4E (Mus musculus, UniProt P63073); test: blockers of eIF4G binding by eIF4E – biochemical, TR-FRET, dose response (AID 855); format: functional;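 note: potency for disrupting eIF4E binding to eIF4GI seen as loss of FRET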
[7] = Luminescence Cell-Based Dose Retest to Confirm Inhibitors of Cancer Stem Cells. [Related pubchem assays (depositor defined):AID2717, AID2721]; format: functional; conditions: Homo sapiens
[8] = reduction of Shn3 3'UTR-driven luciferase in osteoblasts – cell-based, Clone20 osteoblasts, firefly luciferase, cherry-picked, dose response (AID 624132); format: functional;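 note: firefly luciferase luminescence from reporter carrying the Shn3 3'UTR in osteoblasts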
[9] = loss of viability in HepG2 cells – cell-based, CellTiter-Glo, cherry-picked, cytotoxicity control for Shn3 inhibitor project, dose response (AID 624134); format: functional
[10] = non-specific 3'UTR reporter inhibition in Clone20-Shn3RL – cell-based, Renilla luciferase, cherry-picked, counter-screen for Shn3 inhibitor project, dose response (AID 624133); format: functional
A-375 [11] = test: MITF: Counter assay: A375 proliferation Measured in Cell-Based System Using Plate Reader - 2084-03_Inhibitor_Dose_DryPowder_Activity. [Related pubchem assays (depositor defined):AID488944]; format: functional; conditions: Homo sapiens
HeLa = test: ATP-based viability loss in HeLa cells – cell-based, CellTiter-Glo luminescence, cherry-pick samples, cytotoxicity control for MITF activator project, dose response (AID 540259); format: functional; conditions: Homo sapiens
[12] = molecular target: T3, Intestinal-type alkaline phosphatase (Homo sapiens, UniProt P09923); test: inhibition of human intestinal alkaline phosphatase – biochemical, luminescent, uHTS hits, set 2, dose response (AID 488793); format: functional
Aminopeptidase N = molecular target: T4, Aminopeptidase N (Plasmodium falciparum FcB1/Columbia, UniProt O96935); test: malaria alanyl aminopeptidase activity blockers – biochemical, fluorogenic H-Leu-NHMec substrate, 1536-well (AID 1445); parameters: species or system Plasmodium falciparum 3D7, 3D7
T4 sequence (O96935 whole entry): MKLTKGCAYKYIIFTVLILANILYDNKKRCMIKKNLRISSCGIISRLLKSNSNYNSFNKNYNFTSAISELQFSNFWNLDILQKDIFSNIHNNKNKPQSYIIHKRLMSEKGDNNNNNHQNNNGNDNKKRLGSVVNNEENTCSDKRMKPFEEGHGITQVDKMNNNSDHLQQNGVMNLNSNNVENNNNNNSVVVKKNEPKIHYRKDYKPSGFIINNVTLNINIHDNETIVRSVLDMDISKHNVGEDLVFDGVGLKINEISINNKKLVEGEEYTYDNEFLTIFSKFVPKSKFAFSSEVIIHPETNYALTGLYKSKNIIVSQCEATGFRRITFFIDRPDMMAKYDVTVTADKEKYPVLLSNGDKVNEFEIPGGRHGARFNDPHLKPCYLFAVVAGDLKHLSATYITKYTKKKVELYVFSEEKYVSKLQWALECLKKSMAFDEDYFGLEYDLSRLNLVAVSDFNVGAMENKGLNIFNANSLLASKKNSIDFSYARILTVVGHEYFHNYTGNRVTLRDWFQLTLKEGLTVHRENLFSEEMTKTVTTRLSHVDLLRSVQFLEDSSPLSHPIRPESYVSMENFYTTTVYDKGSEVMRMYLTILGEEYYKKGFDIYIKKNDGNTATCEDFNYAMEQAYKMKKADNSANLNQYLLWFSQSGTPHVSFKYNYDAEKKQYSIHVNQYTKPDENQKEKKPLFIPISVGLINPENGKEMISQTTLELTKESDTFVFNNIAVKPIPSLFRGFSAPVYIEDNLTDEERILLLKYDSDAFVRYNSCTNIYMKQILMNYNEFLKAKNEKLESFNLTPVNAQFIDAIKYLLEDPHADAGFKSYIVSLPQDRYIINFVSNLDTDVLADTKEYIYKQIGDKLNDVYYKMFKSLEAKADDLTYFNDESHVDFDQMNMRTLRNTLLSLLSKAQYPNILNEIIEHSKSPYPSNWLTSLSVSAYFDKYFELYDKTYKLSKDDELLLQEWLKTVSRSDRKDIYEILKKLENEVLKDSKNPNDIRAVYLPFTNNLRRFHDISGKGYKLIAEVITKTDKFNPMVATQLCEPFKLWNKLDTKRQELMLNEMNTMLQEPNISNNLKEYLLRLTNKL

[13] = molecular target: T5, Alkaline phosphatase, tissue-nonspecific isozyme (Homo sapiens, UniProt P05186); test: inhibition of tissue-nonspecific alkaline phosphatase – biochemical, dose response (AID 488882); format: functional
T5 sequence (P05186 whole entry): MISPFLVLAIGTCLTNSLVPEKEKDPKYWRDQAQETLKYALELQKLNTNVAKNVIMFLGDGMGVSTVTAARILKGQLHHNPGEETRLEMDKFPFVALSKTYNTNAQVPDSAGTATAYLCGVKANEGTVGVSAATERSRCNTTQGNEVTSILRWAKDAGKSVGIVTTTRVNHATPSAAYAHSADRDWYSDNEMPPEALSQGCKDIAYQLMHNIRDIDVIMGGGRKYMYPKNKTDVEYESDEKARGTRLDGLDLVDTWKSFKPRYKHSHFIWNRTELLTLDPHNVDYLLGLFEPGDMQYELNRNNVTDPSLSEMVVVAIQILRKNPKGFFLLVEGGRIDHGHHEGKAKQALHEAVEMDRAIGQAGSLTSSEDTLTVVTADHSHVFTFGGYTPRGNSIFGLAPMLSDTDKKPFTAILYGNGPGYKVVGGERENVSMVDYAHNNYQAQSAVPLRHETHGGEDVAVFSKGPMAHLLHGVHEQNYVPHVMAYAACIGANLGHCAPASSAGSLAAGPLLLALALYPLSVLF

Prothrombin = Prothrombin (Bos taurus, UniProt P00735); test: thrombin protease inhibitors – biochemical, fluorescence polarization, uHTS hits, dose response (AID 602369); format: functional
[14] = molecular target: Intestinal-type alkaline phosphatase (Mus musculus, UniProt P24822); test: PubChem AID 488874; format: functional
[15] = molecular target: 26S proteasome non-ATPase regulatory subunit 14 (Homo sapiens, UniProt O00487); test: inhibition of proteasome subunit RPN11 – biochemical, fluorescence polarization, uHTS hits, confirmation (AID 602368); format: functional
[16] = molecular target: T3, Intestinal-type alkaline phosphatase; test: Dose Response confirmation of uHTS hits from a small molecule inhibitors of human intestinal alkaline phosphatase via a luminescent assay. [Related pubchem assays (depositor defined):AID2544, AID2574]; format: functional
[17] = molecular target: Heat shock protein HSP 90-alpha (Homo sapiens, UniProt P07900); format: functional, organism-based
[18] = molecular target: 72 kDa type IV collagenase (Homo sapiens, UniProt P08253); test: Dose Response validation of uHTS RPN11 inhibitor hits using a MMP-2 Fluorescence assay.; format: functional
[19] = molecular target: Phosphoethanolamine/phosphocholine phosphatase (Homo sapiens, UniProt Q8TCT1); test: SAR assay for compounds that inhibit PHOSPHO1. [Related pubchem assays (depositor defined):AID1545, AID1565, AID1574]
[20] = molecular target: T6, Mannose-6-phosphate isomerase (Homo sapiens, UniProt P34949); test: phosphomannose isomerase inhibition – biochemical, fluorescence intensity, confirmation (AID 1535)
T6 sequence (P34949 whole entry): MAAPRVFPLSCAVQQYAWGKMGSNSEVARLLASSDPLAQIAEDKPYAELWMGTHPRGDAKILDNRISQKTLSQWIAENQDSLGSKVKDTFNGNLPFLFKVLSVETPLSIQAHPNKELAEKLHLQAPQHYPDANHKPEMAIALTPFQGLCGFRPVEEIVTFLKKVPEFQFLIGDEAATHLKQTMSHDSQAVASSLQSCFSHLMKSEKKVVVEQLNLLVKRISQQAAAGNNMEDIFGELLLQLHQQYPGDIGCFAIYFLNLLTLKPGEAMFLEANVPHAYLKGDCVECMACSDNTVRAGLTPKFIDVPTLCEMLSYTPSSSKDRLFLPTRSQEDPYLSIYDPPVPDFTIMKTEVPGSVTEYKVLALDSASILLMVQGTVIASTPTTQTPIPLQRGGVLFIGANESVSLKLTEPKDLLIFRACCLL

Phosphomannomutase 2 = Phosphomannomutase 2 (Homo sapiens, UniProt O15305); test: Counter screen SAR assay for PMM2 inhibitors via a fluorescence intensity assay. [Related pubchem assays (depositor defined):AID1545, AID1574]
Sequence of Phosphomannomutase 2 (O15305 whole entry): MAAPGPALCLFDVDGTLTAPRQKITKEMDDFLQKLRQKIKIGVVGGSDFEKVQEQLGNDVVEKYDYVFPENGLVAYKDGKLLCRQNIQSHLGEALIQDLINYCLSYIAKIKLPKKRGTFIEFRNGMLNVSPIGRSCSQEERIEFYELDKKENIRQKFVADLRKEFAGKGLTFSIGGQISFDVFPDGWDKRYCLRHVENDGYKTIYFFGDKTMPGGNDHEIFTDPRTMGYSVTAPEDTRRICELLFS

T3 sequence (P09923 whole entry): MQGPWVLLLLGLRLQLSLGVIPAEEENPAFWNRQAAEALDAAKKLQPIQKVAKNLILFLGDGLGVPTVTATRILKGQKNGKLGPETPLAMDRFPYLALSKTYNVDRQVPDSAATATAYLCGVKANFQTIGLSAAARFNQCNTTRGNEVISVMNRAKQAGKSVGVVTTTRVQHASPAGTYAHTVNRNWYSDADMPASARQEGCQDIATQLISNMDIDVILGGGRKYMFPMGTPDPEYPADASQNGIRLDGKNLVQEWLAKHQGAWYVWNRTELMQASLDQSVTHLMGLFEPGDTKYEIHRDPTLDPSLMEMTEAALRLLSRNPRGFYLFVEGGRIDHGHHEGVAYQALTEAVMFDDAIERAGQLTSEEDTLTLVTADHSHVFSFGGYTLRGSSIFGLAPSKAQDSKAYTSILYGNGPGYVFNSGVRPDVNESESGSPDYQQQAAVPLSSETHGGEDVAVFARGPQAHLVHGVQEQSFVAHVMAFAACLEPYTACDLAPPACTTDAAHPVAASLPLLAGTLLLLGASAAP
Sequence of FAD-linked sulfhydryl oxidase ALR (P55789 whole entry): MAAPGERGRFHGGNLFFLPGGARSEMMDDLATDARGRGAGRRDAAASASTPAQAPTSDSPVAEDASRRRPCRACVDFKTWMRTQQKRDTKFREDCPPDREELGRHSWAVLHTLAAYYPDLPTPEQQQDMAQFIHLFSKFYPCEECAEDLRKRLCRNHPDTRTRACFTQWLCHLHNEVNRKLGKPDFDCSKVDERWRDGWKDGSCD
Sequence of 26S proteasome non-ATPase regulatory subunit 14 (O00487 whole entry): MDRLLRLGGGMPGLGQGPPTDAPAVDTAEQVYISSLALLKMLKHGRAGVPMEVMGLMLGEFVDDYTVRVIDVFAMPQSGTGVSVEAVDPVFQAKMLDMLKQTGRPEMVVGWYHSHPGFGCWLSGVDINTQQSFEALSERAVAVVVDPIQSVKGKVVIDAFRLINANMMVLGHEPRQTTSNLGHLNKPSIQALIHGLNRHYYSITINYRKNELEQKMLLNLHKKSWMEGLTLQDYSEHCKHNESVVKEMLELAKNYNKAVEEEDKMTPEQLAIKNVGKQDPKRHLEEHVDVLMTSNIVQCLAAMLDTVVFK
Sequence of Beta-galactosidase (Q8VNN2 whole entry): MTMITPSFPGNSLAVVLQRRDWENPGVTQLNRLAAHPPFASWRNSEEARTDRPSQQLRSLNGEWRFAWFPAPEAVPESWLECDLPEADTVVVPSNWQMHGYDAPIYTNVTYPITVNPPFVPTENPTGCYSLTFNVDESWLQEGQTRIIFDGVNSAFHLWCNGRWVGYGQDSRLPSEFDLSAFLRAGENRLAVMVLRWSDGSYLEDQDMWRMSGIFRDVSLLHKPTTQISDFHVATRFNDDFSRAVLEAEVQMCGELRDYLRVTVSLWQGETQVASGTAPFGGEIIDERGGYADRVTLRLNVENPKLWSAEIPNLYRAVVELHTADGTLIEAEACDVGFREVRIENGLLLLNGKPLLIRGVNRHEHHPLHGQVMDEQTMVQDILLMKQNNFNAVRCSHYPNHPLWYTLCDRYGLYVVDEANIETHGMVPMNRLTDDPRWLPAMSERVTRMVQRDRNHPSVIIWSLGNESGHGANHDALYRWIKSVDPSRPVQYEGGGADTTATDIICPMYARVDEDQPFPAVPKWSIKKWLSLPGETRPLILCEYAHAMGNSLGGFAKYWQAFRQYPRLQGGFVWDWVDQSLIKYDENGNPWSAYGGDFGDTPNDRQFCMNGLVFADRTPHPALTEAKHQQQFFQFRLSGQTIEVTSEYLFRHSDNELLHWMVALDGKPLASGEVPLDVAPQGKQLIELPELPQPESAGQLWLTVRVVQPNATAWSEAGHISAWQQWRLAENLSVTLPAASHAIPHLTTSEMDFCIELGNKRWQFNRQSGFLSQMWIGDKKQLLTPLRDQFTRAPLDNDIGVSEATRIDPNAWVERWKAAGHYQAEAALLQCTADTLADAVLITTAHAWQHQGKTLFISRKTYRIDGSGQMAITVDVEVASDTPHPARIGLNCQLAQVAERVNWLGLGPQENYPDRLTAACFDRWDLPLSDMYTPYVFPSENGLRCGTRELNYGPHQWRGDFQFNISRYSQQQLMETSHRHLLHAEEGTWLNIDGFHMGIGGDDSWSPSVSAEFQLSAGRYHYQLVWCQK
Sequence of Intestinal-type alkaline phosphatase (Mus musculus, UniProt P24822) (P24822 whole entry): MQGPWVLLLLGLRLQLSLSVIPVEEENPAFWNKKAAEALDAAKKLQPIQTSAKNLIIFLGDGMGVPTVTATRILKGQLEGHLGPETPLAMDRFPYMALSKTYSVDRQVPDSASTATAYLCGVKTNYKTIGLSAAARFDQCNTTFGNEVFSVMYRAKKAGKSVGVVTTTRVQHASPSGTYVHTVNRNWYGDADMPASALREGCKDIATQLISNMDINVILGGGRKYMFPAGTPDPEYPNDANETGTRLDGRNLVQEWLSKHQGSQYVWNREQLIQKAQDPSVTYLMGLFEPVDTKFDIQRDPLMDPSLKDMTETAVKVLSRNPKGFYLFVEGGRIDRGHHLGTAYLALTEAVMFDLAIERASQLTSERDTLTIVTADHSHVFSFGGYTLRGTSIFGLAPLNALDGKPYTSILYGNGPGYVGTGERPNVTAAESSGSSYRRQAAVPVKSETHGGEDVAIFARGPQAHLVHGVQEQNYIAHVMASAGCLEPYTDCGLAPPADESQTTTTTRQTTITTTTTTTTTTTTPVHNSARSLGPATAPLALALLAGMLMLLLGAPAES
Sequence of Phosphoethanolamine/phosphocholine phosphatase (Q8TCT1 whole entry): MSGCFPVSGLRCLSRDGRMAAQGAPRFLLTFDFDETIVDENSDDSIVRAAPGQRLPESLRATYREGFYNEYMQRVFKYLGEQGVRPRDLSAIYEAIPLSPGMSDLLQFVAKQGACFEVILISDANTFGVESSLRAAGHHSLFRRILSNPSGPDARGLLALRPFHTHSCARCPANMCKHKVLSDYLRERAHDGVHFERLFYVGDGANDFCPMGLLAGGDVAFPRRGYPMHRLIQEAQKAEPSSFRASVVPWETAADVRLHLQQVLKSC
Sequence of Eukaryotic translation initiation factor 4E (P63073 whole entry): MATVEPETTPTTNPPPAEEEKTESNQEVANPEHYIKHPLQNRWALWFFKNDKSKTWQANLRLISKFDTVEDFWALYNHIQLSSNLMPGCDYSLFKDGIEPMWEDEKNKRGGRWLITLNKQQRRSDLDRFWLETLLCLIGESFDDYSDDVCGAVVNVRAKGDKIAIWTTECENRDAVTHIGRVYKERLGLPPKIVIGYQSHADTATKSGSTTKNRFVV
Sequence of 72 kDa type IV collagenase (P08253 whole entry): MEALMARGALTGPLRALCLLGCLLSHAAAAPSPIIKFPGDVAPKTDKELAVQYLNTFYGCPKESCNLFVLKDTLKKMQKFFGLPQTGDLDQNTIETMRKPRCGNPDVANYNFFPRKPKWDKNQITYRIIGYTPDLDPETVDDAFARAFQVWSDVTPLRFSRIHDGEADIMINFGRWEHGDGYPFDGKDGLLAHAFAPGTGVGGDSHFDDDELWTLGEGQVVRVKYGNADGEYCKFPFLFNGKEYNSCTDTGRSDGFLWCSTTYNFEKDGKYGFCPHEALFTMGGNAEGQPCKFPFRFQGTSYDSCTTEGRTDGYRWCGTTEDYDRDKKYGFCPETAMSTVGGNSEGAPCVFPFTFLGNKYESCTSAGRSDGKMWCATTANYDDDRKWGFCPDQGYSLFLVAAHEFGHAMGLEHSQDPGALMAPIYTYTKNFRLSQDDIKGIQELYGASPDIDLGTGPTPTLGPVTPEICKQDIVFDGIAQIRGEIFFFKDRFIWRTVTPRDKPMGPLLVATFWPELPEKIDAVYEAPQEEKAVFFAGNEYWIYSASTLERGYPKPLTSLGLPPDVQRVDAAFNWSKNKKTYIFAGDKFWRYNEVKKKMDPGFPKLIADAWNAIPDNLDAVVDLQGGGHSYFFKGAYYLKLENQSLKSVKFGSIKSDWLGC

N#CCCn1cc(C(CC(=O)c2ccc(Br)cc2)C(=O)O)c2ccccc21 (stereo unspecified)
active: EC50 [1] 22.9 µM
inactive: AC50 [2] > 100 µM

Cc1ccc(Oc2c(C(N)=O)cc([N+](=O)[O-])cc2[N+](=O)[O-])cc1
active: AC50 (A-375 [3]) > 11 µM | AC50 [4] 3.68 µM | IC50 (cells) 1.31 µM | CC50 [5] 22.4 µM | AC50 [7] 2.99 µM | AC50 [8] 11.9 µM | AC50 [9] 25.2 µM | AC50 [10] 4.73 µM | AC50 (A-375 [11]) > 11 µM
inactive: IC50 (Beta-galactosidase) > 66.6 µM | IC50 [6] > 64 µM

Cc1ccc(C(=O)O/N=C(\N)c2ccc(Br)cc2)cc1
active: AC50 (HeLa) 48.5 µM

O=C(NN1C(=O)/C(=C/c2ccc(O)c([N+](=O)[O-])c2)SC1=S)c1ccccc1Cl
active: IC50 [12] 22.9 µM | IC50 (Aminopeptidase N) 71.1 µM | IC50 [13] 29.8 µM | IC50 (Prothrombin) 32 µM | IC50 [14] 10.6 µM | IC50 [15] 39.7 µM | AC50 [17] 2.86 µM | IC50 [18] 82.1 µM
inactive: IC50 [16] 25.4 µM

O=C1c2ccccc2C(=O)c2c1ccc1c(=O)n(-c3cccc([N+](=O)[O-])c3)sc21
inactive: IC50 [19] 3.6 µM | IC50 [20] > 50 µM | IC50 (Phosphomannomutase 2) > 100 µM
